The values that follow come from patent US20130022692A1, “Expression Modulator For Clock Gene Period” (SHISEIDO COMPANY, LTD., priority 2010, published 2013).

The test system of this test is Period1 gene. In words: Period1 gene expression in cultured human skin fibroblastic cells (RT-PCR). The class given is cell-based. To be noted: for Induction of expression rhythm and increase of Period1 gene expression: peak at 2 hours after stimulation, result in words. How it is done: As the cultured human fibroblastic cells, fibroblastic cells from normal human skin were purchased (Cell Application, Inc.) and used in the experiments. They were inoculated in DMEM medium supplemented with 10% FBS, 20 mM HEPES, Glutamax and antibacterial agents and cultured at 37° C. in 5% CO2. On the 6th day of culture, 50 ng/mL of cortisol or 10 μM of forskolin was added to each wells, and the samples were harvested at various times after time 0, which was defined as the time immediately after the addition of cortisol or forskolin. RNA was extracted from the cells with a commercially available RNA extraction kit, and the amounts of expression of the intended genes were measured by RT-PCR technology using commercially available PCR primers (Perfect Real Time Primer, Takara Bio). As for clock genes, amounts of expression of Period1 and Bmal1, which are involved in the core system, were determined. Similarly, the amounts of expression of a housekeeping gene RPLP0 were quantified and used as an internal standard to calculate the relative expression of the intended genes to RPLP0. […] Test substances were evaluated for the expression modulating effect on a Period gene based on the amount of gene expression at 2 hours after stimulation. To confirm the induction of expression rhythm for the Period gene, the amount of expression of the Period1 gene at 16 hours after stimulation was also determined. Fibroblastic cells from normal human skin (Cell Application, Inc.) were inoculated according to a method similar to those used above. Each test substance was added on the 6th day of culture to a final concentration of 100 ppm, and the cells were harvested 2 and 16 hours after stimulation. […] The amounts of expression of the Period1 gene were determined by RT-PCR technology using commercially available PCR primers (Perfect Real Time Primer, Takara Bio). The amounts of gene expression of a housekeeping gene RPLP0 were quantified and used as an internal standard to calculate the relative expression of the target genes with respect to RPLP0.

`C=C1CC/C=C(\C)CC[C@@H]2[C@@H]1CC2(C)C` [beta-Caryophyllene]: the “Induction of expression rhythm and increase of Period1 gene expression” value is on record as “significantly increase amounts of gene expression of Period1”. In addition, the “Relative amount of Period1 gene expression (2 hours)” value (test substance 100 ppm, 2 hours after stimulation, relative to RPLP0, control 0.23, *p < 0.05, **p < 0.01) is 0.44*.

With `C[C@]12CCC(=O)C=C1CC[C@@H]1[C@@H]2[C@@H](O)C[C@@]2(C)[C@H]1CC[C@]2(O)C(=O)CO` [cortisol, reference compound], the “Induction of expression rhythm and increase of Period1 gene expression” value is recorded as “significantly increase amounts of gene expression of Period1”.
